By EC50 is commonly meant the concentration giving half of the maximal effect. A low value points to higher potency in that assay.

Structures are written as SMILES.

In this experiment the target is human GPR120 (Homo sapiens (Human), UniProt Q5NUL3). The experiment is described as follows: GPR120 pERK AlphaScreen SureFire Assay (human). It is filed as cell-based. Conditions: CHO cells stably transfected with short form of human GPR120.
Chain of human GPR120 (Q5NUL3 whole entry): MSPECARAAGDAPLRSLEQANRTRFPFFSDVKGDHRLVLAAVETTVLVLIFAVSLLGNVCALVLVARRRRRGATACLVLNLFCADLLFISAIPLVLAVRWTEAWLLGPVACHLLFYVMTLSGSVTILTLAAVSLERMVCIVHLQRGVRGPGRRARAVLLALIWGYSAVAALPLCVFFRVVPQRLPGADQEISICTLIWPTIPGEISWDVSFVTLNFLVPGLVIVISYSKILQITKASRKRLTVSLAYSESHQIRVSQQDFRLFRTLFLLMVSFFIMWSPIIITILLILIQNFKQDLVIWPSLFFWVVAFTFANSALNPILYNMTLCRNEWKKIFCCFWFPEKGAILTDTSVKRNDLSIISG
Excerpt: GPR120 activity was monitored by measuring phosphorylation of ERK (pERK), since G protein receptors are known to activate the ERK signaling cascade either directly and/or through recruitment of arrestin that serves as a scaffold for downstream signaling events.
GPR120 pERK AlphaScreen SureFire Assay
The human and mouse GPR120-mediated intracellular phosphorylated ERK assays were established using CHOA12 cells stably transfected with the short form of human or mouse GPR120 receptor. […] Cells were cryo preserved at a concentration of 2×10^7 cells/mL, in 90% Charcoal/Dextran FBS and 10% DMSO, and frozen in liquid nitrogen at a low passage number.
The flasks were placed in a tissue culture incubator overnight (37° C., 5% CO2). […] The next day, cells were serum starved in 30 μL of F-12 media without any serum or antibiotics for 2 hours at 37° C.
Cells were then stimulated with 50 nL of compound dilutions using ECHO liquid handler for 7 minutes at 37° C.
(§1) The lysis buffer was diluted 5-fold with water before use. […] The SureFire assay reagent mix was prepared by mixing 60 parts Reaction Buffer, 10 parts Activation Buffer, 1 part Donor Beads, 1 part Acceptor Beads (Perkin Elmer Cat. #TGRES10K). 3.5 μL/well of this reagent mix was manually added to the proxiplate with a multichannel pipettor. Plates were spun down at 1000 rpm for 2 minutes, followed by light-protected incubation at room temperature for 2 hours. The plates were read on the Alpha-technology compatible Envision multilabel plate reader using AlphaScreen protocol according to manufacturer's specifications. The agonist effect of compounds was expressed as 100× (average sample−average blank)/(average total−average blank) where sample is the luminescence activity in the presence of test compound, blank is equal to the luminescence activity in the presence of DMSO control and the total is signal induced by 50 μM linolenic acid as reference compound. Activation data for the test compound over a range of concentrations was plotted as percentage activation of the test compound (100%=maximum response). After correcting for background, EC50 values were determined.
The human and mouse GPR120-mediated intracellular phosphorylated ERK assays were also established using CHO-K1 cells stably transfected with the short form of human or mouse GPR120 receptor. […] Cells were cryo preserved at a concentration of 3×10^6 cells/mL, in 70% F-12, 20% Charcoal/Dextran FBS and 10% DMSO, and frozen in liquid nitrogen at a low passage number.
The flasks were placed in a tissue culture incubator overnight (37° C., 5% CO2).
Cells were then stimulated with 40 nL of compound dilutions using ECHO liquid handler for 7 minutes at 37° C.
as §1, with “compound.” for “compound. Activation data for the test compound over a range of concentrations was plotted as percentage activation of the test compound (100%=maximum response). After correcting for background, EC50 values were determined.”
Activation data for the test compound over a range of concentrations was plotted as percentage activation of the test compound (100%=maximum response). After correcting for background, EC50 values were determined.
On the technique in general: In Alpha technology, singlet oxygen from a donor bead excites a nearby acceptor bead.
The compound `O=C(O)[C@H]1C[C@@H]1COCC1CC(c2cccc(Oc3ccccc3)c2)C1` (relative stereo) [Example 63, Trans-2-(((3-(3-phenoxyphenyl)cyclobutyl)methoxy)methyl)cyclopropanecarboxylic acid] had an EC50 of 1260 nM.
Next, `CC(C)Oc1ccc(F)c(-c2ccc(C3CC4(C3)CC4C(=O)O)cc2)c1` (single isomer, unassigned) [Example 41, 5-(2′-Fluoro-5′-isopropoxy-[1,1′-biphenyl]-4-yl)spiro[2.3]hexane-1-carboxylic acid]: 32000 nM; `CC(C)Oc1ccc(F)c(-c2ccc(C3CC4(C3)CC4C(=O)O)cc2)c1` (single isomer, unassigned) [Example 42, 5-(2′-Fluoro-5′-isopropoxy-[1,1′-biphenyl]-4-yl)spiro[2.3]hexane-1-carboxylic acid]: 2210 nM; `CC(C)Oc1ccc(F)c(-c2ccc(CC3CC(C(=O)O)C3)cc2)c1` (single isomer, unassigned) [Example 48, 3-((2′-Fluoro-5′-isopropoxy-[1,1′-biphenyl]-4-yl)methyl)cyclobutanecarboxylic acid]: 790 nM.
The result for `CC(C)Oc1ccc(F)c(-c2ccc(CC3CC(C(=O)O)C3)cc2)c1` (single isomer, unassigned) [Example 49, 3-((2′-Fluoro-5′-isopropoxy-[1,1′-biphenyl]-4-yl)methyl)cyclobutanecarboxylic acid] reads 500 nM; that for `O=C(O)[C@H]1CC1[C@H]1C[C@@H](c2ccc(-c3cc(Oc4ccccc4)ccc3F)cc2)C1` (stereo in doubt) [Example 40, 2-(3-(2′-Fluoro-5′-phenoxy-[1,1′-biphenyl]-4-yl)cyclobutyl)cyclopropanecarboxylic acid], 9270 nM.
Next, `CC(C)Oc1ccc(F)c(-c2ccc([C@H]3C[C@@H](OCC(=O)O)C3)cc2)c1` [Example 2, Cis-2-(3-(2′-fluoro-5′-isopropoxy-[1,1′-biphenyl]-4-yl)cyclobutoxy)acetic acid]: 530 nM; `O=C(O)CO[C@H]1C[C@@H](c2ccc(-c3cc(OC4CCCC4)ccc3F)cc2)C1` [Example 3, Cis-2-(3-(5′-(cyclopentyloxy)-2′-fluoro-[1,1′-biphenyl]-4-yl)cyclobutoxy)acetic acid]: 410 nM; `COc1cc(Cl)cc(-c2ccc([C@H]3C[C@@H](OCC(=O)O)C3)cc2)c1` [Example 6, Cis-2-(3-(3′-chloro-5′-methoxy-[1,1′-biphenyl]-4-yl)cyclobutoxy)acetic acid]: 880 nM.
As for `CC(C)Oc1cccc(-c2ccc([C@H]3C[C@@H](OCC(=O)O)C3)cc2)c1` [Example 7, Cis-2-(3-(3′-isopropoxy-[1,1′-biphenyl]-4-yl)cyclobutoxy) acetic acid], the response was half-maximal at 590 nM (EC50).
The result for `O=C(O)CO[C@H]1C[C@@H](c2ccc(-c3cc(OC(F)(F)F)ccc3Cl)cc2)C1` [Example 8, Cis-2-(3-(2′-chloro-5′-(trifluoromethoxy)-[1,1′-biphenyl]-4-yl)cyclobutoxy)acetic acid] reads 900 nM.
In turn, `O=C(O)CO[C@H]1C[C@@H](c2ccc(-c3cccc(Cc4ccccc4)c3)cc2)C1` [Example 9, Cis-2-(3-(3′-benzyl-[1,1′-biphenyl]-4-yl)cyclobutoxy)acetic acid] came in with an EC50 of 1590 nM. This EC50 is about 1.8-fold higher than that of the compound before.
In turn, `CC(C)Oc1cccc(-c2ccc([C@H]3C[C@@H](OCC(=O)O)C3)cc2)c1F` [Example 10, Cis-2-(3-(2′-fluoro-3′-isopropoxy-[1,1′-biphenyl]-4-yl)cyclobutoxy) acetic acid] gave an EC50 of 1020 nM. Against the preceding compound, the EC50 is about 1.6-fold lower.
In the case of `CC(C)Oc1cc(Cl)cc(-c2ccc([C@H]3C[C@@H](OCC(=O)O)C3)cc2)c1` [Example 11, Cis-2-(3-(3′-chloro-5′-isopropoxy-[1,1′-biphenyl]-4-yl)cyclobutoxy) acetic acid], the EC50 came out at 560 nM.
Consider `Cc1cc(OC(C)C)cc(-c2ccc([C@H]3C[C@@H](OCC(=O)O)C3)cc2)c1` [Example 12, Cis-2-(3-(3′-isopropoxy-5′-methyl-[1,1′-biphenyl]-4-yl)cyclobutoxy) acetic acid], for which the EC50 came out at 430 nM.
Next, `CC(C)Sc1ncc(C(F)(F)F)cc1-c1ccc([C@H]2C[C@@H](OCC(=O)O)C2)cc1` [Example 13, Cis-2-(3-(4-(2-(isopropylthio)-5-(trifluoromethyl)pyridin-3-yl)phenyl)cyclobutoxy)acetic acid]: 2610 nM; `O=C(O)CO[C@H]1C[C@@H](c2ccc(-c3cccc(C(=O)c4ccccc4)c3)cc2)C1` [Example 14, Cis-2-(3-(3′-benzoyl-[1,1′-biphenyl]-4-yl)cyclobutoxy) acetic acid]: 830 nM.
Next, `CC(C)Oc1ccc(F)c(-c2ccc([C@H]3C[C@@H](OCC(=O)O)C3)cc2)c1F` [Example 15, Cis-2-(3-(2′,6′-difluoro-3′-isopropoxy-[1,1′-biphenyl]-4-yl)cyclobutoxy)acetic acid]: 800 nM; `COc1ccc(OC(F)(F)F)cc1-c1ccc([C@H]2C[C@@H](OCC(=O)O)C2)cc1` [Example 16, Cis-2-(3-(2′-methoxy-5′-(trifluoromethoxy)-[1,1′-biphenyl]-4-yl)cyclobutoxy)acetic acid]: 480 nM; `O=C(O)CO[C@H]1C[C@@H](c2ccc(-c3cc(OC(F)(F)F)ccc3F)cc2)C1` [Example 17, Cis-2-(3-(2′-fluoro-5′-(trifluoromethoxy)-[1,1′-biphenyl]-4-yl)cyclobutoxy)acetic acid]: 550 nM.
The result for `CC(C)Oc1cc(F)cc(-c2ccc([C@H]3C[C@@H](OCC(=O)O)C3)cc2)c1` [Example 18, Cis-2-(3-(3′-fluoro-5′-isopropoxy-[1,1′-biphenyl]-4-yl)cyclobutoxy) acetic acid] reads 3130 nM; that for `COc1cc(OC(C)C)cc(-c2ccc([C@H]3C[C@@H](OCC(=O)O)C3)cc2)c1` [Example 19, Cis-2-(3-(3′-isopropoxy-5′-methoxy-[1,1′-biphenyl]-4-yl)cyclobutoxy)acetic acid], 1590 nM.
In turn, `Cc1ccc(Oc2ccc(F)c(-c3ccc([C@H]4C[C@@H](OCC(=O)O)C4)cc3)c2)cn1` [Example 20, Cis-2-(3-(2′-fluoro-5′-((6-methylpyridin-3-yl)oxy)-[1,1′-biphenyl]-4-yl)cyclobutoxy) acetic acid] returned a concentration for a half-maximal effect (EC50) of 270 nM.
The compound `Cc1nc(-c2ccc(F)c(-c3ccc([C@H]4C[C@@H](OCC(=O)O)C4)cc3)c2)no1` [Example 21, Cis-2-(3-(2′-Fluoro-5′-(5-methyl-1,2,4-oxadiazol-3-yl)-[1,1′-biphenyl]-4-yl)cyclobutoxy)acetic acid] returned an EC50 of 550 nM.
For the compound `O=C(O)CO[C@H]1C[C@@H](c2ccc(-c3cc(Oc4cccc(F)c4)cnc3Cl)cc2)C1` [Example 22, Cis-2-(3-(4-(2-Chloro-5-(3-fluorophenoxy)pyridin-3-yl)phenyl)cyclobutoxy)acetic acid], it took 360 nM to reach a half-maximal effect (EC50).
For `Cc1nc(-c2ccccc2)c(-c2ccc([C@H]3C[C@@H](OCC(=O)O)C3)cc2)s1` [Example 23, Cis-2-(3-(4-(2-Methyl-4-phenylthiazol-5-yl)phenyl)cyclobutoxy)acetic acid], the response was half-maximal at 3460 nM (EC50).
As to `CC1(C)Cc2cc(Cl)cc(-c3ccc([C@H]4C[C@@H](OCC(=O)O)C4)cc3)c2O1` [Example 24, Cis-2-(3-(4-(5-chloro-2,2-dimethyl-2,3-dihydrobenzofuran-7-yl)phenyl)cyclobutoxy) acetic acid], the EC50 amounted to 2900 nM.
`O=C(O)CO[C@H]1C[C@@H](c2ccc(-c3cc(Oc4ccncc4)ccc3F)cc2)C1` [Example 25, Cis-2-(3-(2′-fluoro-5′-(pyridin-4-yloxy)-[1,1′-biphenyl]-4-yl)cyclobutoxy)acetic acid] returned an EC50 of 1900 nM.

For the origin of these results see patent publication US10023519B2, “Cyclobutane containing carboxylic acid GPR120 modulators” (BRISTOL-MYERS SQUIBB COMPANY, priority 2014, dated 2018).
